What was measured:
isolated rat uterus = test: Effect on spontaneous uterus motility, same general method on isolated rat uterus (in vitro); format: cell-based; details: for selectivity ratio (EC50 uterus / EC50 colon): colon versus uterus; for EC50: isolated rat uterus, spontaneous motility
[1] = tested on: isolated proximal colon rat strips; test: Reduction of spontaneous contractile activity of isolated proximal colon rat strips (in vitro); format: cell-based; details: Krebs-Ringer, 37° C., read-out: EC50, on colon (concentration effective to reduce by 50% the contractile activity observed in controls)
Source text: In particular, their effects in reducing colon spontaneous motility have been observed in in vitro normalized pharmacological tests and has been confirmed in the animal in vivo.
In the in vitro tests, the capability of different concentrations of the phenylethanolaminomethyltetralins of the present invention to reduce, under particular normalised conditions, the spontaneous contractile activity of isolated proximal colon rat strips has been evaluated.
Not fasted male rats weighing 250-300 g are sacrificed. The proximal part of the colon, approximately a 2 to 3 cm segment, is removed and suspended in a 20-ml organ bath containing oxygenated (5% CO2, 95% O2) Krebs-Ringer solution with the following mM composition: NaCl 118.4; KCl 4.7; CaCl2 2.45; MgSO4 1.16; NaH2 PO4 3.7; glucose 5.6; NaHCO3 30.9, kept at a constant temperature of 37° C. The colon strips submitted to a 1 g traction spontaneously contract. The test compounds are added thereto after stabilisation of the preparation (2h).
The EC50, i.e. the concentration which is effective to reduce by 50% the contractile activity observed in controls, is determined.

Row | EC50 (isolated rat uterus) [nM] | EC50 [1] [nM] | Structure (SMILES) | selectivity ratio (EC50 uterus / EC50 colon) (isolated rat uterus)
1 | 350 | 194 | COc1ccc2c(c1)CC(NCC(O)c1cccc(Cl)c1)CC2.Cl (stereo not drawn) [Example 7 of EP-B-211,721, N-(7-methoxy-1,2,3,4-tetrahydronaphth-2-yl)-2-hydroxy-2-(3-chlorophenyl)ethanamine hydrochloride] | lower than 2
2 | 2450 | 43 | COc1ccc2c(c1)CC(CNCC(O)c1cccc(Cl)c1)CC2.Cl (stereo not drawn) [Example 4, N-[(7-methoxy-1,2,3,4-tetrahydronaphth-2-yl)methyl]-2-hydroxy-2-(3-chlorophenyl)ethanamine hydrochloride] | 57
3 | 50 | 7 | O=C(O)C(=O)O.Oc1ccc2c(c1)CC(CNCC(O)c1cccc(Cl)c1)CC2 (stereo not drawn) [Example 10, N-[(7-hydroxy-1,2,3,4-tetrahydronaphth-2-yl)methyl]-2-hydroxy-2-(3-chlorophenyl)ethanamine oxalate] | about 7
4 | 110 | 110 | Oc1ccc2c(c1)CC(NCC(O)c1cccc(Cl)c1)CC2 (stereo not drawn) [Example 8 of EP-B-211,721] | 1

From patent publication US5130339A, “Phenylethanolaminomethyltetralins and pharmaceutical use” (Sanofi, priority 1989, dated 1992)
